From PubChem BioAssay (NCI) come the findings set out here.

Among the test systems are HOP-62 NSCLC; SF-539 CNS; COLO 205 colon; A549 NSCLC; HCT-15 colon; KM12 colon; T-47D breast; SK-OV-3 ovarian; SR leukemia; UACC-257 melanoma; SK-MEL-28 melanoma; MALME-3M melanoma.
What all share (assay): NCI anticancer screen, dose series, 48 h

SMILES strings stand for the structures. Several values for one entry are separate records, joined by “and”; a condition that tells them apart may be missing. Equal entries are not always repeated.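 Dose response: 5 concentrations. Exposure: 48 h. Format: 96-well plates. Endpoint: linear interpolation; highest concentration if not reached. Abbreviation: GI50, concentration required for 50% inhibition of growth. TGI: concentration producing complete growth inhibition.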

Take `CO/N=C(/C)c1cccc(Nc2nc3ccccc3c3[nH]c4ccccc4c23)c1`: the TGI in the test on HOP-62 NSCLC is 21.7 µM; in the test on SF-539 CNS, 28.1 µM; in the test on COLO 205 colon, 20.3 µM; in the test on A549 NSCLC, 24.7 µM; in the test with HCT-15 colon, 23.6 µM; in the test with KM12 colon, 14.2 µM. The TGI was 6.9 µM with T-47D breast, 40.3 µM with SK-OV-3 ovarian, greater than 100 µM in the test on SR leukemia and 26.5 µM in the test with UACC-257 melanoma.

`CC1(C)OC2[C@@H](CO[C@@]3([C@@H](O)CCO)OC(C)(C)O[C@@H]23)O1` (stereo partly specified): the TGI in the test with HOP-62 NSCLC, in the test on SF-539 CNS, in the test with COLO 205 colon, with SK-MEL-28 melanoma, in the test with HCT-15 colon and in the test with KM12 colon was greater than 100 µM each time. Also, the TGI with T-47D breast, in the test on SR leukemia and with UACC-257 melanoma was greater than 100 µM in each case.

With `CCOC(=O)c1[nH]c(Br)c(-c2ccc(OC)c(OC)c2)c1Br`, the GI50 was 0.0253 µM in the test on HOP-62 NSCLC; 0.0116 µM in the test with SF-539 CNS; 0.02 µM with COLO 205 colon; 0.0564 µM in the test on A549 NSCLC; 0.04 µM in the test on HCT-15 colon; 0.0172 µM in the test with KM12 colon. For the same molecule, the GI50 with UACC-257 melanoma is 10 µM. The TGI with HOP-62 NSCLC is 14.8 µM; with SF-539 CNS, 0.0428 µM and 0.0128 µM; in the test on COLO 205 colon, 1.07 µM; in the test on SK-MEL-28 melanoma, 20.3 µM; with A549 NSCLC, 23 µM; with HCT-15 colon, 15.4 µM. Further, the TGI came to 72.5 µM with T-47D breast, 13.4 µM in the test with SR leukemia and 22.3 µM with UACC-257 melanoma.

Turning to `CS(=O)(=O)OCCN(CCOS(C)(=O)=O)c1ccc(C=Nc2cccc(Cl)c2)cc1`, the TGI with HOP-62 NSCLC was greater than 100 µM; with MALME-3M melanoma it was 33.2 µM; with SF-539 CNS, 27.3 µM; in the test with COLO 205 colon it was 6.56 µM; in the test on SK-MEL-28 melanoma it was greater than 30.4 µM; in the test on A549 NSCLC, 29.2 µM. Besides, the TGI was 10 µM in the test on HCT-15 colon; greater than 100 µM in the test on KM12 colon; greater than 100 µM with T-47D breast; 0.307 µM with SR leukemia; 21.1 µM with UACC-257 melanoma.

As to `OC1(c2ccc(-c3ccccc3)cc2)c2ccccc2C2=NCCN21` (stereo unspecified), the TGI was 43.5 µM in the test on HOP-62 NSCLC; 48.3 µM in the test with COLO 205 colon; 80.6 µM in the test with SK-MEL-28 melanoma; greater than 100 µM with A549 NSCLC; greater than 100 µM in the test on HCT-15 colon; 54.4 µM with KM12 colon. Also, the TGI in the test on T-47D breast, with SK-OV-3 ovarian, in the test on SR leukemia and in the test on UACC-257 melanoma was greater than 100 µM in each case.

In the case of `CCP(=O)(CC)C(Cl)Cl`, the TGI in the test on HOP-62 NSCLC, in the test with COLO 205 colon, in the test with SK-MEL-28 melanoma, in the test on A549 NSCLC, with HCT-15 colon and in the test with T-47D breast was greater than 100 µM throughout. The TGI in the test on SK-OV-3 ovarian, in the test on SR leukemia and in the test with UACC-257 melanoma was greater than 100 µM each time.

As to `O=C1C(Br)=C(c2ccccc2)O/C1=C/C(=O)c1ccc(Br)cc1`, the TGI with HOP-62 NSCLC, with MALME-3M melanoma, with SF-539 CNS, with COLO 205 colon, with SK-MEL-28 melanoma and in the test with HCT-15 colon was greater than 100 µM in each case. Further, the TGI with KM12 colon, in the test with T-47D breast and with SR leukemia was greater than 100 µM in each case.

As for `O=C1CC(c2ccccc2)C2(C(=O)NC(=S)NC2=O)C(c2ccccc2)C1` (stereo unspecified), the TGI in the test on HOP-62 NSCLC, with MALME-3M melanoma, in the test on SF-539 CNS, in the test with COLO 205 colon, in the test with SK-MEL-28 melanoma and in the test with HCT-15 colon was greater than 75 µM each time. Moreover, the TGI in the test with KM12 colon, in the test with T-47D breast, in the test with SR leukemia and in the test with UACC-257 melanoma was greater than 75 µM in each case.

`CC(=O)OC12C3C4C1C1C2C3C41OC(C)=O` (stereo unspecified): the TGI with HOP-62 NSCLC, with SF-539 CNS, in the test on COLO 205 colon, in the test with SK-MEL-28 melanoma, in the test with A549 NSCLC and with HCT-15 colon was greater than 100 µM throughout. The TGI in the test with KM12 colon, in the test with T-47D breast, in the test on SK-OV-3 ovarian, with SR leukemia and in the test on UACC-257 melanoma was greater than 100 µM in each case.

For the molecule `CC(C)(C)OC(=O)N(CCCCNC(=O)OCc1ccccc1)CCCNC(=O)OCc1ccccc1`, the TGI in the test with HOP-62 NSCLC, with SF-539 CNS, in the test with COLO 205 colon, with SK-MEL-28 melanoma, in the test with A549 NSCLC and with HCT-15 colon was greater than 100 µM in each case. Moreover, the TGI in the test on KM12 colon, in the test with T-47D breast, in the test with SK-OV-3 ovarian, in the test with SR leukemia and in the test with UACC-257 melanoma was greater than 100 µM each time.
